In patent publication US20050112131A1, “Methods of adjuvant photodynamic therapy to enhance radiation sensitization” (priority 2002, published 2005):

Key:
RIF-1 tumors [1] = experiment: Tumor oxygen by EPR oximetry at different irradiances; format: in vivo, mice; settings: light 3 hours post-injection; for tumor pO2 levels during treatment, low irradiance: 50 mW/cm^2 verteporfin, 30 mW/cm^2 ALA-PPIX; for tumor pO2 levels during treatment, high irradiance: 200 mW/cm^2 verteporfin, 150 mW/cm^2 ALA-PPIX
Procedure: Tumor oxygen changes were measured in mice treated either with aminolevulinic acid-induced protoporphyrin IX (ALA-PPIX) or verteporfin. Using electron paramagnetic resonance (EPR) oximetry described in Example 1, two irradiance levels were performed three hours post-injection of verteporfin or ALA-PPIX. Irradiance levels for ALA-PPIX were 30 mW/cm^2 and 150 mW/cm^2, whereas 50 mW/cm^2 and 200 mW/cm^2 were used for verteporfin.
EPR oximetry measured tumor oxygenation in RIF-1 tumor cells and in tumorigenic mice treated with photodynamic therapy, using synthetic lithium phthalocyanine (LiPc) as the oxygen-sensitive EPR material. Small particles between 50 and 200 μm in size were implanted into the animal tumors by 23-gauge needle at a depth of 1-3 mm within the tumor. Injections of LiPc were performed at least 24 hours prior to photodynamic therapy. Mice were placed in an L-band (1.2 GHz) EPR spectrometer with a microwave bridge that was custom-built for small animal experiments involving measurement of tissue pO2. Each mouse was anesthetized and placed in the EPR resonator for continuous measurement of the tumor tissue pO2 in 15-minute intervals. The external loop resonator was positioned over the tumor to record the EPR signal of injected LiPc within the tissue. Line widths of the EPR signal were converted to pO2 using a calibration curve determined for LiPc. The data were fit with a software program to match the Voigt line shape after the line widths were graphed as a function of time before, during, and after treatment.

RIF-1 tumors [2] = experiment: Tumor pO2 by Eppendorf electrode after ALA photodynamic therapy; format: in vivo, mice
Procedure: To independently confirm the results described above in ALA-PPIX-treated animals, Eppendorf pO2 electrode measurements were performed in the same tumor model. Two sections of animals with tumors were irradiated for 45 minutes. The first group of animals received ALA-injections 3 hours prior to light irradiation at a concentration of 100 mg/kg, and the second group received light alone. The light was at a wavelength of 633 nm, at a fluence of 150 mW/cm^2. Measurements were taken from the tumors immediately after the light was turned off. […] Collected data were pooled from three tracks in each animal with seven control animals (FIG. 7A) and 6 treated animals (FIG. 7B). The median pO2 for the control group was 3.7 mm Hg, while the median for the treated group was 8.7 mm Hg. Clearly, significant increases in tumor oxygenation occurred after treatment.

RIF-1 tumors [3] = experiment: Tumor pO2 by EPR oximetry during verteporfin photodynamic therapy; format: in vivo, mice
Procedure: Measurements of tumor partial pressure of oxygen (pO2) were taken in mice that harbored tumors derived from injection of transformed cells. Radiation-induced fibrosarcoma (RIF-1) cells were used for in vivo studies. RIF-1 cells were obtained from the National Cancer Institute (NCI) and originated from the laboratory of James B. Mitchell. The cells were grown in culture in RPMI 1640 cell culture medium, supplemented with 10% fetal bovine serum (FBS), L-glutamine, and appropriate antibiotics. The cells were not passaged more than four times from the original stock. Cell cultures were scaled up to large culture flasks, then removed and resuspended in medium lacking FBS and injected at 4×10^6 cells/mouse in a 50 μl volume. Intradermal injection delivered the cancer cells into the upper right leg of female C3h/HeJ mice (age 5-6 weeks) approximately 11-14 days before the anticipated treatment time.
Verteporfin was obtained from QLT Phototherapeutics Inc. (Vancouver, BC, Canada) for use as photosensitizer. The photoactive molecule is a benzoporphyrin derivative mono-acid ring ‘A’ (BPD-MA), which was suspended in a lipid preparation comprising 1.77% of BPD-MA and the remaining 98.23% composed of the lipids. Verteporfin was reconstituted in phosphate buffered saline (PBS) at a final concentration of 0.2 mg BPD-MA/ml, then injected into mice lateral tail vein to deliver a dose of 1 mg BPD-MA per kg of body weight. The drug was allowed to incubate for varying times prior to light exposure.
A diode laser system with 200 mW average power was used, at a wavelength of 690 nm (Applied Optronics, South Plainfield, Conn.). The beam was delivered to the tumor site in animals through a 140 μm fiber-optic, and was expanded onto the tumor in a circular top-hat beam, using a fiber-optic collimator (Thor Labs, North Newton, N.J.). The beam diameter for in vivo experiments was 1.1 cm, producing an irradiance of 200 mW/cm^2. Light treatment was given transcutaneously with shaven animals.
Animals were anesthetized by isoflurane at a concentration of 1.5% mixed with 26% oxygen in a continuous flow, delivered by inhalation. The animal was maintained at 37° C. on a heated water pad. Warm air was allowed to flow over the animal. In the first treatment group, tumors were exposed to light three hours after verteporfin injection. The second group received light only 15 minutes after injection. These animals were monitored for tumor pO2 before, during, and after treatment. The second experimental group is thought to be indicative of eliciting a vascular occlusion response, and contrasts effects from 3-hour photosensitizer incubation. The third group received light without prior photosensitizer injection.
Tumor pO2 was monitored with an oxygen-sensitive electron paramagnetic resonance (EPR) probe material, synthetic lithium phthalocyanine (LiPc), which was implanted into tissue and allowed for stable measurements of tissue pO2 over several weeks. […] LiPc molecules between 50 and 200 μm in diameter were implanted into the animal tumors with a 23-gauge needle at least 24 hours before photodynamic therapy, allowing for resolution of acute fluctuations in pO2 due to injection. The particles were implanted at a depth of 1-3 mm within the tumor.
The animals were placed in an L-band (1.2 GHz) EPR spectrometer with a custom-made microwave bridge for measurements of tissue pO2. The external loop resonator was positioned over the tumor to record the EPR signal of the LiPc from within the tissue. […]

RIF-1 cells [4] = experiment: Cell viability (MTS assay) after in vitro photodynamic therapy; format: cell-based, mouse; settings: 1 μg/ml BPD, 3-hour incubation, maximal light dose, MTS 24 hours after treatment
Procedure: RIF-1 cells were plated three days prior to treatment in black, plastic 96-well plates with a transparent bottom (Fisher Scientific, Springfield, N.J.) at a density of 5000 cells/200 μl medium/well. After 3 days of growth in 5% CO2 at 37° C. in a humidified incubator, the cells were used in photodynamic therapy. On the day of treatment, the medium was replaced with 100 μl/well of medium with 1 μg/ml BPD in the verteporfin preparation. After a 3-hour incubation, the BPD solution was removed and rinsed once with Hanks Balanced Salt Solution (HBSS), then 100 μl of fresh medium was added to the wells. Cells were irradiated in groups of four wells, with blank wells between the treated groups to ensure that each group of wells received the correct dose of light. […]
Surviving cells were assayed 24 hours after treatment, using the MTS assay kit (CellTiter 96®AQueous, Promega, Madison, Wis.). […] After incubation for 1 h at 37° C., the absorbance of the formazan product at […] was measured directly in an automated plate reader (ThermoMax, Molecular Devices, Menlo Park, Calif.). The quantity of formazan product as measured by the amount of 490 nm absorbance units is directly proportional to the number of living cells in culture, and absorbance values from groups of wells that received the same light dose were averaged. […]

RIF-1 cells [5] = experiment: In vitro cellular oxygen consumption rate by EPR oximetry; format: cell-based, mouse; settings: 1 μg/ml BPD, 3-hour incubation
Procedure: RIF-1 cells were plated three days prior to treatment in black, plastic 96-well plates with a transparent bottom (Fisher Scientific, Springfield, N.J.) at a density of 5000 cells/200 μl medium/well. After 3 days of growth in 5% CO2 at 37° C. in a humidified incubator, the cells were used in photodynamic therapy. On the day of treatment, the medium was replaced with 100 μl/well of medium with 1 μg/ml BPD in the verteporfin preparation. After a 3-hour incubation, the BPD solution was removed and rinsed once with Hanks Balanced Salt Solution (HBSS), then 100 μl of fresh medium was added to the wells. Cells were irradiated in groups of four wells, with blank wells between the treated groups to ensure that each group of wells received the correct dose of light. In each 96-well plate, squares of 4 were treated with increasing light doses with 8 groups/plate, including the control, non-irradiated group. Surviving cells were assayed for viability and/or cellular oxygen consumption.
Immediately following photodynamic therapy, cells were trypsinized, suspended in fresh medium, and cell viability determined by trypan blue dye exclusion prior to use in oxygen consumption measurement. […] The rate of oxygen consumption was measured using EPR. […] A Bruker EMX EPR spectrometer measured all spectra, operating at 9 GHz. […] The slope of the obtained data was determined by linear regression. […]

RIF-1 tumors [6] = experiment: Tumor regrowth assay, photodynamic therapy alone or combined with radiation; format: in vivo, mice
Procedure: The combination effect of photodynamic therapy and radiation therapy was examined in in vivo tumor models. Injection of PBD or saline (control) was given 3 hours prior to irradiation in all animals. Light at 690 nm wavelength was delivered t the photodynamic therapy treated animals while the animal was positioned in the irradiator cone. An irradiance of 133 mW/cm^2 was used for a total of 12 minutes, for a total dose of 100 J/cm^2. Radiation was administered at a single dose of 10 Gy (300 keV, 10 mA, HVL=2.33 Gy/min). The following groups were organized: (1) sham-irradiated controls, (2) radiation treatment alone, (3) photodynamic therapy alone, (4) radiation treatment followed by photodynamic therapy, and (5) photodynamic therapy with simultaneous radiation treatment. In Group 4, X-ray radiation was administered for the full 3-minute treatment period after the photosensitizer was injected and incubated in the animal for 3 hours, then irradiation was given for 12 minutes. The Group 5 animals received irradiation 3 hours after drug injection, and during the last three minutes of the irradiation. X-ray irradiation was also given to the tumor at the same time.
Irradiation using the 10 Gy dose using approximately 300 keV was delivered in 3 minutes from a Pantak Therapax 300 orthovoltage irradiator, using a 2 cm collimation cone. This cone was contacted with a region of the mouse leg surrounding the tumor. The end of the collimation cone was comprised of transparent plastic, allowing radiation and treatment to occur at the same time (required for Group 5, where photodynamic therapy and radiation were simultaneously administered). All animals were treated with the cone in place, as well as Group 1 sham-irradiated mice and Group 3 photodynamic therapy alone mice. This was performed to ensure equal doses of light were given to all groups, which included changes in the beam from reflection and refraction through the irradiator cone.
Each group of mice were assayed for tumor regrowth following combined radiation/photodynamic therapy, radiation alone, or photodynamic therapy alone. The resulting treatment effect was assayed by calculation of tumor volume, as calculated by measurement of the three major axis dimensions: Volume≅Length×Width×Height/2 The time for a tumor to reach double its volume on the day of treatment was calculated for each individual animal separately, by estimating the data by a linear fit to logarithmic growth curves versus time. The average values from these times to double in volume were determined for each group of mice. Analysis of the tumor regrowth data, estimates of the mean double time (including standard deviation), and mice heterogeneity was achieved by generating individual growth curve data and fitting with a mixed effect model. It was assumed that after day 3, the tumor re-grows exponentially, which corresponds to a linear function when plotted on a semi-logarithmic graph. The time for a tumor to reach double its volume on the day of treatment was calculated for each group along with the respective standard deviation. The standard error gives rise to the group comparison using X-test to account for significant differences between the mean values of the different treatment groups.

[7] = Group 4, radiation (10 Gy) then PDT
[8] = Group 5, PDT with simultaneous radiation (10 Gy)

With NCC(=O)CCC(=O)O [ALA, 5-aminolevulinic acid] the “tumor pO2 levels during treatment, low irradiance” value (RIF-1 tumors [1]) was “remained the same”, the “tumor pO2 levels during treatment, high irradiance” value (RIF-1 tumors [1]) was “a measurable drop in oxygen” and the “median tumor pO2 immediately after light” value (RIF-1 tumors [2]; 100 mg/kg ALA 3 hours prior to 633 nm light, 150 mW/cm^2 for 45 minutes, light-only control median 3.7) was 8.7 mm Hg. For the same molecule, the “increase in tumor oxygenation” value (RIF-1 tumors [2]; EPR oximetry and Eppendorf electrode, treated vs control) was “more than two-fold increases”.
With “benzoporphyrin derivative mono-acid ring ‘A’ (BPD-MA) [Verteporfin]” the “tumor pO2 at 1 h post-treatment” value (RIF-1 tumors [3]; 1 mg/kg BPD-MA i.v., light 3 hours after injection) was “returned to within control, or pre-treatment values”, the “final tumor pO2 immediately after treatment” value (RIF-1 tumors [3]; 1 mg/kg BPD-MA i.v., light 3 hours after injection, 690 nm, 144 J/cm^2, p=0.048 vs control) was 15.2±6.9 mm Hg and the “initial tumor pO2” value (RIF-1 tumors [3]; 1 mg/kg BPD-MA i.v., light 3 hours after injection, value before light) was 2.8±1.0 mm Hg. The “average tumor pO2 prior to light exposure” value (RIF-1 tumors [3]; 1 mg/kg BPD-MA injected 15 min prior to irradiation) was 6.8±1.6 mm Hg, the “average tumor pO2 immediately following treatment” value (RIF-1 tumors [3]; 1 mg/kg BPD-MA injected 15 min prior to irradiation (vascular targeting)) was 4.1±0.3 mm Hg and the cell survival (RIF-1 cells [4]) was 20±5%. The oxygen consumption rate (RIF-1 cells [5]; highest light dose 16 J/cm^2) was 0.37±0.04 mmol/min/10^6 cells, the “oxygen consumption as % of control oxygen consumption rates” value (RIF-1 cells [5]; maximal light dose) was 21±4% and the “Re-growth Delay in Doubling Time” value (RIF-1 tumors [6]; Group 3, PDT only) was 3.2 ± 1.7. The “slope of the natural logarithm of tumor volume versus days” value (RIF-1 tumors [6]; Group 3, PDT only) was 0.13, the “Time for Tumor to Double Initial Volume” value (RIF-1 tumors [6]; Group 3, PDT only, injection 3 hours before 690 nm light, 100 J/cm^2) was 8.9 ± 1.7 and the “Re-growth Delay in Doubling Time” value (RIF-1 tumors [6]; [7]) was 5.4 ± 1.4. The “Time for Tumor to Double Initial Volume” value (RIF-1 tumors [6]; [7]) was 11.0 ± 1.5, the “slope of the natural logarithm of tumor volume versus days” value (RIF-1 tumors [6]; Group 4, radiation then PDT) was 0.13 and the “slope of the natural logarithm of tumor volume versus days” value (RIF-1 tumors [6]; Group 5, PDT with simultaneous radiation) was 0.11. The “Re-growth Delay in Doubling Time” value (RIF-1 tumors [6]; [8]) was 8.1 ± 1.5, the “Time for Tumor to Double Initial Volume” value (RIF-1 tumors [6]; [8]) was 13.7 ± 1.6 and the “tumor pO2 levels during treatment, low irradiance” value (RIF-1 tumors [1]) was “remained the same”. The “tumor pO2 levels during treatment, high irradiance” value (RIF-1 tumors [1]) was “remained the same”.
